pIC50: −log10 of the molar value.
Assays:
Assay type in all cases: biochemical
[1] = biological target: Factor Xa (Homo sapiens (Human), UniProt P00742); assay: Dose response assay for protease inhibitors: Factor Xa; conditions: selectivity, Factor Xa over Factor XIa
Procedure: (§1) • Assay buffer: 20 mM Hepes, pH 7.4; 150 mM NaCl; 0.02% Tween 20 • Compounds: 10 mM stocks in DMSO • Substrate: 20 mM Glp-Pro-Arg-AMC, 25 mg/2.3 mL H2O (store at +4° C.) [Factor XIa, thrombin, and trypsin] • 20 mM Pro-Phe-Arg-AMC (Bachem I-1295), 25 mg/2.2 mL H2O • or Boc-Leu-Gly-Arg-AMC (Bachem I-1105), 25 mg/2.07 mL H2O • (store at +4° C.) [Factor Xa] • Enzyme: Factor XIa; 0.25 μM in 50% glycerol (20 μg/mL) • Trypsin; 0.2 μM in 50% glycerol (4.8 μg/mL) • Thrombin; 0.2 μM in 50% glycerol (7.34 μg/mL) • Factor Xa; 0.2 μM in 50% glycerol (9.2 μg/mL) • These stocks are aliquoted (˜100 μL/aliquot) and stored at −20° C. Methods: • 1. Dilute the substrate to 100 μM in assay buffer (30 μL/6 mL). The enzyme is diluted to 0.5 nM just prior to use (12 μL/6 mL for Factor XIa; 15 μL/6 mL for all of the rest.) • 2. Pipette 50 μL of substrate into each well of the 96 well (12×8) microtiter plate. (Column 1 is used as the 100% activity control and receives no compound, and Column 12 is the blank and receives no enzyme.) Add an additional 46 μL to column 2. • 3. Pipette 4 μL of each compound into the appropriate well in column 2 of the plate (unknowns assayed in triplicate, standard assayed in duplicate). The final compound concentration will be […] of the stock. • 4. Serially two-fold dilute the compound by mixing the sample in column 2, removing 50 μL to the next well (column 3), mix and remove to column 4, etc. until column 11. After mixing column 11, remove 50 μL and discard. • 5. Pipette 50 μL of buffer into column 12. Initiate the reaction by adding 50 μL of enzyme solution to each well of columns 1-11 as rapidly as possible. • 6. Read the plate in a spectrophotometer (SpectraMax) at 30° C., wherein each well is measured every 60 s for 30 min. For Factor Xa assays, each well is measured every 1 min for a total of 60 min. • 7. For Factor XIa assays, the compounds are assayed, in duplicate, at 3 different starting concentrations, 20, 2, and 0.2 μM; 1:10, 1:100, and 1:1000 dilution of 10 mM stock or at 2, 0.2, and 0.02 μM; 1:100, 1:1000, and 1:10,000 dilution of 10 mM stock. Data for each concentration are combined for graphing and data fitting. • 8. Data can be used both for estimation of IC50 and for estimation of Kon.

[2] = biological target: Factor XIa (Homo sapiens (Human), UniProt P03951); assay: Factor XIa enzyme inhibition assay (dose response, fluorogenic AMC substrate); conditions: read-out: hFXIa IC50
Summary of the method: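 Human FXIa at 0.25 nM final with 50 μM final PyroGlu-Pro-Arg-AMC in 20 mM Hepes pH 7.4, 150 mM NaCl, 0.02% Tween 20. Two-fold serial compound dilutions; fluorescence read every minute for 30 min at 30° C. IC50 from a four-parameter Hill fit.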

[3] = system: Trypsin; assay: Dose response assay for protease inhibitors: trypsin; conditions: selectivity, trypsin over Factor XIa
Procedure: as §1

[4] = biological target: Thrombin (Homo sapiens (Human), UniProt P00734); assay: Dose response assay for protease inhibitors: thrombin; conditions: selectivity, thrombin over Factor XIa
Procedure: as §1

Chain of Factor Xa (P00742 235-488): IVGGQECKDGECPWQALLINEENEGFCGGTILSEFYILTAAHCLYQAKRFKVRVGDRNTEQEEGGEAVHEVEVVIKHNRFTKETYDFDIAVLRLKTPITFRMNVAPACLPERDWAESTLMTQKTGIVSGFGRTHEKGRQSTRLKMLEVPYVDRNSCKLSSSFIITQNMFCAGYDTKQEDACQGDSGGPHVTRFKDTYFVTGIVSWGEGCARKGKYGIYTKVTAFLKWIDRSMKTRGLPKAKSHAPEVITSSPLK
Chain of Factor Xa (P00742 41-179 partner): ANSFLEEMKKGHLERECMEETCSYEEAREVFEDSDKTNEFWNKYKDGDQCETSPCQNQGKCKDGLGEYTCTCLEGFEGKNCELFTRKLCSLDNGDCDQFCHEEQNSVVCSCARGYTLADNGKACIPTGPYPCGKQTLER
Chain of Factor XIa (P03951 388-625): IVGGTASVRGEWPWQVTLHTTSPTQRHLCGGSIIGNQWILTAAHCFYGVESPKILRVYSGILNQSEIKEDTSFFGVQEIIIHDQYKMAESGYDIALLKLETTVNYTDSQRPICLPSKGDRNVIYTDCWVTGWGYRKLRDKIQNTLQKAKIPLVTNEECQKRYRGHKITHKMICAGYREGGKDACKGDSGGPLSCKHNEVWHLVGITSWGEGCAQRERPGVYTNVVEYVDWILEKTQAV
Chain of Factor XIa (P03951 19-387 partner): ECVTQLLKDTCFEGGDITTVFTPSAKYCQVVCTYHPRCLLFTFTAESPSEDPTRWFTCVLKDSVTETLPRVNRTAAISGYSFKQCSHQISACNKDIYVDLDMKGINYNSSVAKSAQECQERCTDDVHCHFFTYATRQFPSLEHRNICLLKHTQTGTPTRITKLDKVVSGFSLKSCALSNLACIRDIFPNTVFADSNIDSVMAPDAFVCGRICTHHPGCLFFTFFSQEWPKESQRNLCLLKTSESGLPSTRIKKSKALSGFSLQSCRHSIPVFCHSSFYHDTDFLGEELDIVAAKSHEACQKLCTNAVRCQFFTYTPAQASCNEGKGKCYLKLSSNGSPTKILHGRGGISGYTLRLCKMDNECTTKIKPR

Ratio: FXa/FXIa [1] | pIC50 [2] | Ratio: Thrombin/FXIa [4] | SMILES | Ratio: Trypsin/FXIa [3]
H (“H” indicates 101-1000) | > 8.00 | H (“H” indicates 101-1000) | CC[C@@H](NC(=O)N1C(=O)[C@H](Cc2ccnc(N)c2)[C@H]1C(=O)N(C)c1ccn(C)n1)c1cccc(F)c1C [Compound 1-128, (2S,3R)-3-((2-aminopyridin-4-yl)methyl)-N2-(1-methyl-1H-pyrazol-3-yl)-N1-((R)-1-(2-methyl-3-fluorophenyl)propyl)-N2-methyl-4-oxoazetidine-1,2-dicarboxamide] | G (“G” indicates 1-100)
I (“I” indicates > 500) | > 8.00 | H (“H” indicates 101-1000) | CC[C@@H](NC(=O)N1C(=O)[C@H](Cc2cc(C)nc(N)c2)[C@H]1C(=O)N(C)c1cnn(C)c1)c1cc(C)cc(F)c1 [Compound 1-184, (2S,3R)-3-((2-amino-6-methylpyridin-4-yl)methyl)-N2-(1-methyl-1H-pyrazol-4-yl)-N1-((R)-1-(3-fluoro-5-methylphenyl)propyl)-N2-methyl-4-oxoazetidine-1,2-dicarboxamide] | G (“G” indicates 1-100)
I (“I” indicates > 500) | > 8.00 | H (“H” indicates 101-1000) | CC[C@@H](NC(=O)N1C(=O)[C@H](Cc2cc(C)nc(N)c2)[C@H]1C(=O)N(C)c1cnn(C)c1)c1cc(C)cc(C)c1 [Compound 1-185, (2S,3R)-3-((2-amino-6-methylpyridin-4-yl)methyl)-N2-(1-methyl-1H-pyrazol-4-yl)-N1-((R)-1-(3,5-dimethylphenyl)propyl)-N2-methyl-4-oxoazetidine-1,2-dicarboxamide] | G (“G” indicates 1-100)
H (“H” indicates 101-1000) | 7.00 to 8.00 | G (“G” indicates 1-100) | CN(C(=O)[C@@H]1[C@@H](Cc2ccnc(N)c2)C(=O)N1C(=O)N[C@@H](c1ccccc1)C(F)(F)F)c1ccn(C)n1 [Compound 1-31, (2S,3R)-3-((2-aminopyridin-4-yl)methyl)-N2-(1-methyl-1H-pyrazol-3-yl)-N1-((S)-1-phenyl-2,2,2-trifluoroethyl)-N2-methyl-4-oxoazetidine-1,2-dicarboxamide] | G (“G” indicates 1-100)
H (“H” indicates 101-1000) | > 8.00 | H (“H” indicates 101-1000) | CC[C@@H](NC(=O)N1C(=O)[C@H](Cc2cc(C)nc(N)c2)[C@H]1C(=O)N(C)c1nccn1C)c1cc(C)ccc1Cl [Compound 1-111, (2S,3R)-3-((2-amino-6-methylpyridin-4-yl)methyl)-N2-(1-methyl-1H-imidazol-2-yl)-N1-((R)-1-(2-chloro-5-methylphenyl)propyl)-N2-methyl-4-oxoazetidine-1,2-dicarboxamide] | G (“G” indicates 1-100)
H (“H” indicates 101-1000) | > 8.00 | H (“H” indicates 101-1000) | CC[C@@H](NC(=O)N1C(=O)[C@H](Cc2ccnc(N)c2)[C@H]1C(=O)N(C)c1ccn(C)n1)c1ccc(C)c(C)c1 [Compound 1-127, (2S,3R)-3-((2-aminopyridin-4-yl)methyl)-N2-(1-methyl-1H-pyrazol-3-yl)-N1-((R)-1-(3,4-dimethylphenyl)propyl)-N2-methyl-4-oxoazetidine-1,2-dicarboxamide] | G (“G” indicates 1-100)
H (“H” indicates 101-1000) | > 8.00 | H (“H” indicates 101-1000) | CC[C@@H](NC(=O)N1C(=O)[C@H](Cc2ccnc(N)c2)[C@H]1C(=O)N(C)c1nccn1C)c1ccc(C)cc1C [Compound 1-114, (2S,3R)-3-((2-aminopyridin-4-yl)methyl)-N2-(1-methyl-1H-imidazol-2-yl)-N1-((R)-1-(2,4-dimethylphenyl)propyl)-N2-methyl-4-oxoazetidine-1,2-dicarboxamide] | G (“G” indicates 1-100)
I (“I” indicates > 500) | > 8.00 | H (“H” indicates 101-1000) | CC[C@@H](NC(=O)N1C(=O)[C@H](Cc2cc(C)nc(N)c2)[C@H]1C(=O)N(C)c1ccn(C)n1)c1cccc(F)c1F [Compound 1-146, (2S,3R)-3-((2-amino-6-methylpyridin-4-yl)methyl)-N2-(1-methyl-1H-pyrazol-3-yl)-N1-((R)-1-(2,3-difluorophenyl)propyl)-N2-methyl-4-oxoazetidine-1,2-dicarboxamide] | G (“G” indicates 1-100)
I (“I” indicates > 500) | > 8.00 | H (“H” indicates 101-1000) | CC[C@@H](NC(=O)N1C(=O)[C@H](Cc2cc(C)nc(N)c2)[C@H]1C(=O)N(C)c1ccn(C)n1)c1cc(F)ccc1F [Compound 1-144, (2S,3R)-3-((2-amino-6-methylpyridin-4-yl)methyl)-N2-(1-methyl-1H-pyrazol-3-yl)-N1-((R)-1-(2,5-difluorophenyl)propyl)-N2-methyl-4-oxoazetidine-1,2-dicarboxamide] | G (“G” indicates 1-100)
H (“H” indicates 101-1000) | > 8.00 | H (“H” indicates 101-1000) | CC[C@@H](NC(=O)N1C(=O)[C@H](Cc2ccnc(N)c2)[C@H]1C(=O)N(C)c1nccn1C)c1ccc(Cl)cc1 [Compound 1-94, (2S,3R)-3-((2-aminopyridin-4-yl)methyl)-N2-(1-methyl-1H-imidazol-2-yl)-N1-((R)-1-(4-chlorophenyl)propyl)-N2-methyl-4-oxoazetidine-1,2-dicarboxamide] | G (“G” indicates 1-100)
I (“I” indicates > 500) | > 8.00 | I (“I” indicates > 500) | CC[C@@H](NC(=O)N1C(=O)[C@H](Cc2cc(C)nc(N)c2)[C@H]1C(=O)N(C)c1ccnn1C)c1cc(F)ccc1C [Compound 1-162, (2S,3R)-3-((2-amino-6-methylpyridin-4-yl)methyl)-N2-(1-methyl-1H-pyrazol-5-yl)-N1-((R)-1-(5-fluoro-2-methylphenyl)propyl)-N2-methyl-4-oxoazetidine-1,2-dicarboxamide] | G (“G” indicates 1-100)
H (“H” indicates 101-1000) | > 8.00 | H (“H” indicates 101-1000) | CC[C@@H](NC(=O)N1C(=O)[C@H](Cc2ccnc(NC)c2)[C@H]1C(=O)N(C)c1cccs1)c1cccc(Cl)c1 [Compound 1-44, (2S,3R)-3-((2-methylaminopyridin-4-yl)methyl)-N2-(thiophen-2-yl)-N1-((R)-1-(3-chlorophenyl)propyl)-N2-methyl-4-oxoazetidine-1,2-dicarboxamide] | G (“G” indicates 1-100)
H (“H” indicates 101-1000) | > 8.00 | G (“G” indicates 1-100) | CC[C@@H](NC(=O)N1C(=O)[C@H](Cc2ccnc(N)c2)[C@H]1C(=O)N(C)c1cnsc1)c1ccccc1 [Compound 1-19, (2S,3R)-3-((2-aminopyridin-4-yl)methyl)-N2-(4-isothiazolyl)-N1-((R)-1-phenylpropyl)-N2-methyl-4-oxoazetidine-1,2-dicarboxamide] | G (“G” indicates 1-100)

— patent US11691962B2 (eXIthera Pharmaceuticals, Inc., priority 2018, dated 2023)
